Reference: patent US20220241285A1, “ORAL CAPSULE AND PREPARATION METHOD THEREFOR” (BEIGENE SWITZERLAND GMBH, priority 2019, published 2022)

Tests used:
Type in all cases: physicochemical
[1] = XRPD of the mixed powder in the study on the mixing process (crystal form stability); details: mixed powder of Example 1, mixing process
[2] = Hygroscopicity of the active pharmaceutical ingredient; details: active pharmaceutical ingredient (API)
[3] = Solubility / biopharmaceutical classification

C=CC(=O)N1CCC([C@@H]2CCNc3c(C(N)=O)c(-c4ccc(Oc5ccccc5)cc4)nn32)CC1 [zanubrutinib, (S)-7-[4-(1-acryloylpiperidine)]-2-(4-phenoxyphenyl)-4,5,6,7-tetrahydropyrazolo[1,5-a]pyrimidine-3-carboxamide]
crystal form of zanubrutinib in the process (XRPD) [1]: remained unchanged | hygroscopicity [2]: slightly hygroscopic | class of the biopharmaceutical classification system [3]: class II | solubility [3]: pH-dependent
